Measured values from patent publication US11311513B2, “Methods, agents, and compositions for the treatment of acute myeloid leukemia” (UNIVERSITY OF CINCINNATI, priority 2017, dated 2022).
“And” between values parts separate entries of the source, which are not always exact repeats. Identical values can stand only once.

Legend:
[1] = system: THP-1 cells; test: MTS cell viability, THP-1; type: cell-based; conditions: Homo sapiens, 48 hrs, unit inferred
Description: In order to identify chemical compounds that may target TET1 signaling, the drug-sensitivity/gene expression database of a total of 20,602 chemical compounds in the NCI-60 collection of cancer cell samples was searched.
All cell lines were authenticated through STR profiling yearly.
These experiments were conducted as described previously (Jiang, X., et al., Blockade of miR-150 Maturation by MLL-Fusion/MYC/LIN-28 Is Required for MLL-Associated Leukemia, Cancer Cell 22:524-35 (2012); Li, Z., et al., miR-196b directly targets both HOXA9/MEIS1 oncogenes and FAS tumour suppressor in MLL-rearranged leukaemia, Nat Commun 2:688 (2012)) with ApoLive-Glo Multiplex Assay Kit, or CellTiter 96 AQueous Non-Radioactive Cell Proliferation Assay Kit (Promega, Madison, Wis.).

[2] = system: STAT3 and STAT5 phosphorylation; test: Western blotting of STAT phosphorylation in MONOMAC-6 cells; type: cell-based; conditions: 250 nM, 0 min to 24 hrs
From the text: FIG. 10. […] Relative cell viabilities are shown. […] Levels of TET1 transcripts are shown. […] (e-h) MONOMAC-6, THP-1 and NB4 cells were transfected with control siRNA (siNC), siSTAT3, or siSTAT5. Expression levels of STAT5 (e), STAT3 (f), TET2 (g) and TET3 (h) were detected by qPCR 48 hrs post-transfection. (i) THP-1 cells were transfected with control siRNA (siNC), siTET1, siJAK1 or siSTAT5. Gene expression levels were detected by qPCR 48 hrs post-transfection. […] (j) ChIP-qPCR assay was carried out 48 hrs after drug treatment. Enrichment of TET1 or IgG at the JAK1 promoter region and other regions are shown. […] Protein levels were detected thereafter. […] Expression levels of TET1, HIF2 a, IL2RA and FRA2 (1) were detected through qPCR. The enrichment of STAT5 on the promoters of TET1 (Site 2; CpG), HIF2a, IL2RA and FRA2 (m) was determined through ChIP-qPCR assays. *, P<0.05; **, P<0.01, two-tailed t-test. Error bar indicates SD of triplicate experiments.
Cells were washed twice with ice-cold phosphate-buffered saline (PBS) and ruptured with RIPA buffer (Pierce, Rockford, Ill.) containing 5 mM EDTA, PMSF, cocktail inhibitor, and phosphatase inhibitor cocktail. Cell extracts were microcentrifuged for 20 min at 10,000 g and supernatants were collected. Cell lysates were resolved by SDS-PAGE and transferred onto PVDF membranes. […]

[3] = system: binding of STAT3/5 to TET1 promoter; test: ChIP-qPCR in MONOMAC-6 cells; type: cell-based; conditions: 500 nM, 48 hrs
Description: ChIP assay was conducted as described previously (Barry, S. P., et al., STAT3 modulates the DNA damage response pathway, Int J Exp Pathol 91:506-14 (2010)), with SABiosciences Corporation's ChampionChIP One-Day kit (Qiagen, Frederick, Md.) following the manufacturer's protocol. Chromatin from MONOMAC-6 cells were cross-linked, sonicated into an average size of ˜500 bp, and then immunoprecipitated with antibodies against STAT3 (Santa Cruz, Dallas, Tex.), STAT5 (BD Biosciences, San Jose, Calif.), or IgG (Abcam, Cambridge, Mass.). Purified DNA was amplified by real-time qPCR using primers targeting the promoter of TET1 as described before (Huang, H., et al., TET1 plays an essential oncogenic role in MLL-rearranged leukemia, Proc Natl Acad Sci USA 110:11994-99 (2013)). Sequences of qPCR primers are: Site 1 forward: 5′-[…]-3′ (SEQ ID NO: 3), reverse: 5′-[…]-3′ (SEQ ID NO: 4); Site 2 forward: 5′-[…]-3′ (SEQ ID NO: 5), reverse: 5′-[…]-3′ (SEQ ID NO: 6); Site 3 forward: 5′-[…]-3′ (SEQ ID NO: 7), reverse: 5′-[…]-3′ (SEQ ID NO: 8); Site 4 forward: 5′-[…]-3′ (SEQ ID NO: 9); reverse: 5′-[…]-3′ (SEQ ID NO: 10).

[4] = system: MLL-AF9-induced AML; test: MLL-AF9 AML secondary BMT mouse model; type: in vivo, mice; conditions: for mice cured / median survival: 2.5 mg/kg i.p. once per day for 10 days; for median survival: control 49 days
Description: (§1) FIG. 2. […] The secondary BMT recipient mice were transplanted with leukemic BM blast cells collected from primary MLL-AF9 AML mice. […] Kaplan-Meier curves are shown. The P values were determined by log-rank test. (b) Wright-Giemsa staining of mouse peripheral blood (PB) and BM, or hematoxylin and eosin (H&E) staining of mouse spleen and liver of the treated or control leukemic mice. (c,d) Tet1/2/3 gene expression levels (c) or Tet1 protein level (d) in BM blast cells of the treated or control leukemic mice. *, P<0.05, two-tailed t-test. Error bar indicates SD of triplicate experiments. […] The secondary BMT recipient mice were transplanted with leukemic BM blast cells collected from the primary AE9a-AML mice. […] Kaplan-Meier curves are shown. The P values were determined by log-rank test.
(§2) Secondary mouse BMT was carried out as described previously. […] For the “5+3” treatment, AraC (Cytarabine, Bedford Laboratories) and DNR (Daunorubicin, Sigma-Aldrich) were reconstituted with PBS, filtered, and stored in aliquots at −20° C. The “5+3” therapy regimen consists of five consecutive daily doses of 50 mg/kg AraC along with 3 mg/kg DNR daily during the first three days of treatment. Drugs were delivered by tail vein and intraperitoneal injection. Weights were taken daily during treatment and doses were recalculated to ensure the mice received a consistent dose of 50 mg/kg AraC and 3 mg/kg DNR every treatment.

[5] = system: AE9a-AML; test: AML-ETO9a (AE9a) AML secondary BMT mouse model; type: in vivo, mice; conditions: for median survival: 2.5 mg/kg i.p. once per day for 10 days, control 46 days
Description: as §1, §2

[6] = versus control, 2.5 mg/kg i.p. 10 days

Row | SMILES | IC50 [1] [nM] | levels of STAT3 and STAT5 phosphorylation [2] | binding of STAT3 and STAT5 on the TET1 loci/promoter [3] | mice cured [4] [%] | median survival [4] [days] | median survival [5] | prolongation of median survival [4, 6] | prolongation of median survival [5, 6]
1 | COc1cc(C(c2cc3c(cc2O)OCO3)N2CCCC2)cc(OC)c1OC (stereo not drawn) [NSC-370284, 6-(1-Pyrrolidinyl(3,4,5-trimethoxyphenyl)methyl)-1,3-benzodioxol-5-ol] | 0.356 | no significant alterations | could be disturbed | 57 | > 200 | 122 days and 114 days |  | 
2 | CC(C)(C)c1cc(C(c2cc3c(cc2O)OCO3)N2CCOCC2)cc(C(C)(C)C)c1O (stereo not drawn) [UC-514321, 6-{[4-Hydroxy-3,5-bis(2-methyl-2-propanyl)phenyl](4-morpholinyl)methyl}-1,3-benzodioxol-5-ol] |  |  | remarkable repression | 66.7 | > 200 | 160 days | over 3 folds | over 3 folds
